The numbers were not newly measured in patent US6562827B1, “Heterocyclically substituted amides used as calpain inhibitors” (Abbott Laboratories, priority 1998, dated 2003), which cites them from elsewhere.

The subject of data set [1] is calpain. Conditions: result in words, from the literature.
Data set [2] deals with calpain. Conditions: known calpain inhibitors.
For data set [3] the following is noted: known calpain inhibitors.
Data set [4] relates to tyrosine kinase pp60src cleaved by calpain. As to conditions: activated platelets; Oda et al. J. Biol. Chem. 1993.

Consider `CC(C)C[C@H](NC(=O)[C@H]1O[C@@H]1C(=O)O)C(=O)NCCCCN=C(N)N` [E 64], for which the calpain inhibition entry in data set [1] is on record as “good calpain inhibitors”. Moreover, the action in cells result in data set [2] was “only a poor action in cells”. In addition, the “crossing of cell membranes” value in data set [3] is recorded as “only cross the cell membranes with difficulty”.

For the molecule `CC(=O)N[C@@H](CC(C)C)C(=O)N[C@@H](CC(C)C)C(=O)N[C@H](C=O)CCCNC(=N)N` [leupeptin], in data set [1], the calpain inhibition entry is recorded as “good calpain inhibitors”. The action in cells entry in data set [2] is listed as “only a poor action in cells”. Moreover, the “crossing of cell membranes” value in data set [3] is listed as “only cross the cell membranes with difficulty”.

In the case of Ph—CONH—CH(CH2Ph)—CO—COCOOCH3, the calpain inhibition result in data set [1] is listed as “only a weak calpain inhibitor”.

For the molecule `CCCC[C@@H](C=O)NC(=O)[C@H](CC(C)C)NC(=O)OCc1ccccc1` [calpeptin], the “cleavage of pp60src” value in data set [4] was “can be prevented”.
